Read-outs that look alike come from different tables or passages of the source.
Legend:
[1] = tested on: L3.6 human pancreatic adeno-carcinoma
Experimental: Pancreatic adenocarcinoma (PA), the fifth most common cause of cancer death in the United States is commonly metastatic and unresectable and is poorly responsive to therapy. […] The in vitro cytotoxicity effect of gemcitabine+/−C6 ceramide versus L3.6 pancreatic cancer cell line were measured using MTT assay. In vivo experiments were performed using SCID/Beige/Taconic male mice, 22-25 g, 6-8 weeks old (Taconic Laboratory, Germantown, N.Y., USA). Mice were inoculated s.c. with 2×106L3.6 PA cells. Four days later mice developed primary tumors and chemotherapy was started. Mice were treated 3 times/week for 4 weeks with i.p. injections of gemcitabine (5.0-10.0-15.0 mg/kg) and C6 ceramide (10.0 mg/kg) or combinations of these drugs. Body weight (BW) and diameters of tumors (TD) were measured every week. Diameters of tumors were used to count the volumes of primary tumors: TV. We also studied percent survival and mean survival time (MST). In these experiments we used the new test: mean rate tumor development (MRTD) which reflects the speed of tumor development and was measured by the formula: MTV/MST.
In vivo experiments utilized SCID/Beige/Taconic male mice inoculated S.C. with 2×106 L3.6 pancreatic cells which were treated 4 days post tumor implant with thrice weekly (3×/wk) intraperitoneal (IP) injections of paclitaxel (P) 3.0 mg/kg, oxaliplatin (OX) 2.5 mg/kg, cisplatin (CP) 2.5 mg/kg, gemcitabine (Gem) 15 mg/kg with or without ceramide 10 mg/kg. Chemotherapy dose levels were based on standardized clinical dosing as modified from in vitro data. […] Maximum tumor volume, tumor weight, body weight and survival were recorded. […] Separate histopathology studies recorded short term effects on tumor necrosis, mitotic index and caspase index.

[2] = tested on: L3.6 pancreatic cancer cell line
[3] = dose column 10 mg/kg (gemcitabine or ceramide alone; ceramide 10 mg/kg in combination)

**Q.** For `CCCCCCCCCCCCC/C=C/[C@@H](O)[C@H](CO)NC(=O)CCCCC` [Ceramide, N-hexanoyl-D-sphingosine], which “anti-tumor regression and survival induced by Oxaliplatin and Gemcitabine” value ([1]; combination therapy) is on record?
**A.** significantly enhanced

**Q.** And the “Tumor Size (cc)” value ([1]; dose column 10 mg/kg)?
**A.** 0.253 cc

**Q.** What about the “Mean Survival Time” value [1, 3] of the same compound?
**A.** 27.8 ± 10.2 days

**Q.** What about the “anti tumor effects of co-administered drugs” value ([1]; with Paclitaxel, Doxorubicin, Cisplatin, Oxaliplatin, Gemcitabine) of the same compound?
**A.** augmented the anti tumor effects

**Q.** And the “effect on cytotoxicity induced by low dose cisplatin and oxaliplatin” value [2]?
**A.** parallel effects

**Q.** How did the “% Survival @ 3 Weeks” value ([1]; 3 weeks) turn out when `Nc1ccn([C@@H]2O[C@H](CO)[C@@H](O)C2(F)F)c(=O)n1` [Gemcitabine] was run?
**A.** 40%

**Q.** What about the “% Survival @ 6 Weeks” value ([1]; 6 weeks) of the same compound?
**A.** 0%

**Q.** What about the “Tumor Size (cc)” value ([1]; dose column 5 mg/kg) of the same compound?
**A.** 0.412 cc

**Q.** What about the “Mean Survival Time” value ([1]; dose column 5 mg/kg (gemcitabine; ceramide 10 mg/kg in combination)) of the same compound?
**A.** 19.6 ± 3.6 days

**Q.** What about the “Tumor Size (cc)” value ([1]; dose column 10 mg/kg) of the same compound?
**A.** 0.376 cc

**Q.** And the “Mean Survival Time” value [1, 3]?
**A.** 27.8 ± 10.2 days

**Q.** And the “Tumor Size (cc)” value ([1]; dose column 15 mg/kg)?
**A.** 0.439 cc

**Q.** What about the “Mean Survival Time” value ([1]; dose column 15 mg/kg (gemcitabine; ceramide 10 mg/kg in combination)) of the same compound?
**A.** 23.2 ± 5.9 days

**Q.** What about the “Mean Final Tumor Volume” value ([1]; i.p. 3x/wk from day 4, paclitaxel 3.0, oxaliplatin 2.5, cisplatin 2.5, gemcitabine 15, ceramide 10 mg/kg, observed 6 weeks, in cm³) of the same compound?
**A.** 1.10 +/−^

**Q.** And the “Mean Survival Time” value ([1]; i.p. 3x/wk, paclitaxel 3.0, oxaliplatin 2.5, cisplatin 2.5, gemcitabine 15, ceramide 10 mg/kg)?
**A.** 22.8 ± 4.5 days

**Q.** And the “Mean Body Weight (g) (Time of Death or Sacrifice)” value ([1]; time of death or sacrifice)?
**A.** 15.6 g

Source: US8216607B2, “Combination of ceramide and gemcitabine for inducing cell death and uses thereof in treating cancer” (priority 2008, dated 2012)
